# Values of other authors, collected in US20040084867A1, “Individualization of therapy with anticoagulants” (Xanthus Life Sciences, Inc., priority 2002, published 2004).
# Read-outs that look alike come from different tables or passages of the source.
# Columns and labels:
# CYP2C9 [1] = details: cited from earlier work
# CYP2C9 [2] = molecular target: CYP2C9 (Homo sapiens, UniProt P11712); details: in vivo; cited from earlier work
# [3] = test system: individuals treated with warfarin; details: cited from earlier work
# [4] = test system: individuals with deep vein thrombosis; details: cited from earlier work
# Chain of CYP2C9 (Homo sapiens, UniProt P11712) (P11712 whole entry): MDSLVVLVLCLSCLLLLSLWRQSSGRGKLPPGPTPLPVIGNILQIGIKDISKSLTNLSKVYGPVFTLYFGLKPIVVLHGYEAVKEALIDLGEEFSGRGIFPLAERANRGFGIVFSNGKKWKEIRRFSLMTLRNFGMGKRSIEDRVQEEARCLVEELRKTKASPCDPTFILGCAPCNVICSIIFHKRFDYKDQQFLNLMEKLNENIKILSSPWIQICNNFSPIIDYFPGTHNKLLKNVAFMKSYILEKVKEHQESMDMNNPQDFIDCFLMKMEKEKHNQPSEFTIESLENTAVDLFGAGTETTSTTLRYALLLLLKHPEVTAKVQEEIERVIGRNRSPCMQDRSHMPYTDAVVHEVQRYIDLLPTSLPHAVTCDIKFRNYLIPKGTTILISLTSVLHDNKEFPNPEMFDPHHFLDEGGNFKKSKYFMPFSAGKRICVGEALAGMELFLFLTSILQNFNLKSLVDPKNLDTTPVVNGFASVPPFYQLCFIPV
smiles,measurement,setting,value
CC(=O)CC(c1ccccc1)c1c(O)c2ccccc2oc1=O (racemic) [warfarin],MD (daily maintenance dose),"CYP2C9 [1]; 1 individual, not specified, *3/*3",0.5 mg/day
same,MD (maintenance dose),"CYP2C9 [1]; 38 Caucasian and African-American, *1/*3, *1/*2, *2/*2, CYP2A6*1/*2","MD; 0.307 (*1/*3, *1/*2, *2/*2, CYP2A6*1/*2) mg/kg/wk"
same,MD (daily maintenance dose),"CYP2C9 [1]; 47 Japanese, *1/*3",1.75 mg/day
same,MD (daily maintenance dose),"CYP2C9 [1]; 47 Japanese, *3/*3",0.4 mg/day
same,MD (daily maintenance dose),"CYP2C9 [1]; 52 British, *1/*2, *2/*2",3.5 mg/day
same,MD (daily maintenance dose),"CYP2C9 [1]; 52 British, *1/*3",2.5 mg/day
same,share of group with at least 1 of *3 or *2 allele,"CYP2C9 [1]; 88 British, control group",1 of *3 or *2 allele vs. only 38% of control
same,risks of major bleeding,"CYP2C9 [1]; 88 British, low dose group",group; ↑ risks of major bleeding in the low dose
same,MD (daily maintenance dose),"CYP2C9 [1]; 94 British, CYP2C9 *1/*2",3.8 mg/day
same,MD (daily maintenance dose),"CYP2C9 [1]; 180 Caucasian, *1/*2, *2/*2",5.2 mg/day
same,MD (daily maintenance dose),"CYP2C9 [1]; 180 Caucasian, *1/*3",3.8 mg/day
same,MD (daily maintenance dose),"CYP2C9 [1]; 180 Caucasian, *2/*3",1.8 mg/day
same,MD (daily maintenance dose),"CYP2C9 [1]; 561 British, *1/*2",4.31 mg/day
same,MD (daily maintenance dose),"CYP2C9 [1]; 561 British, *1/*3",3.97 mg/day
same,MD (daily maintenance dose),"CYP2C9 [1]; 561 British, *2/*2",3.04 mg/day
same,MD (daily maintenance dose),"CYP2C9 [1]; 561 British, *2/*3",4.09 mg/day
same,share of subjects homozygous for CYP2C9*1,CYP2C9 [1]; subjects requiring a high dose (>55 mg/week),83%
same,share of subjects heterozygous for CYP2C9*2,CYP2C9 [1]; subjects requiring a low dose (5-15 mg/week),90%
same,MD (maintenance dose),CYP2C9 [2],vs. 0.397 (*1/*1) mg/kg/wk
same,effective daily doses,[3]; inter-individual range,1 to 60 mg/day
same,daily dose required to maintain efficacy while avoiding side effects,[3]; varies from one individual to another,0.5 to 60 mg
same,recurrence rate,"[4]; Lagerstedt 1985, calf vein thrombosis, heparin 5 days then warfarin 3 months vs only heparin […] days",no recurrences
same,incidence of recurrence,[4]; both groups: INR 2.5 to 4.5 and INR 2.0 to 2.5,approximately 2%
